# Results as given in patent US8835632B2, “Methods to increase the photostability of dyes” (The University of North Carolina at Chapel Hill, priority 2007, dated 2014).
# Test: Absorption and fluorescence spectra, extinction coefficient, fluorescence quantum yield
# Type: physicochemical
# Protocol: Absorption spectra were recorded on a Hewlett-Packard 8453 diode array UV-Vis spectrophotometer (Agilent Technologies, Inc., Santa Clara, Calif.), and fluorescence measurements were taken on a SPEX® Fluorolog 2 spectrofluorometer (HORIBA Jobin Yvon, Inc., Edison, N.J.). Melting points are not corrected. NMR spectra were obtained on a Varian Mercury 300 MHz (Varian, Inc., Palo Alto, Calif.) or on a Bruker 300 MHz DRX 300 spectrometer (Bruker Biospin Corp., Billerica, Mass.). Mass spectra were obtained on a Hewlett-Packard 1100 high-performance liquid chromatograph equipped with an 1100 mass selective detector (MS-ESI) (Agilent Technologies, Inc.).
# With decreasing solvent polarity, the absorption maximum of dyes 1a-b, 2a-d shifted to longer wavelengths, and the intensity of the transition increased (Table 10, FIG. 11).
# The SCRF/VSCRF predicted emission energies and the solute dipole moments before and after the vertical emission process are given in Table 16. The dipole moments of AI-BA(4) and AI-SO(4) are further decreased on the S1 surface after geometry relaxation (in MeOH solution), and then increased during the S1→S0 transition. This observation is consistent with the blue shifts of the emission bands of AI-BA(4) and AI-SO(4) with increasing solvent polarity from C6H6 to MeOH. By contrast, the dipole moment of I-SO further decreases after S1 state geometry relaxation, and then decreases during the vertical emission process. This observation also is in agreement with the red shift of the I-SO emission band with increasing solvent polarity from C6H6 to MeOH. Similarly to the absorption case, a negligible red shift (ΔEem=0.017 eV) was predicted for the emission band of I-TBA with increasing solvent polarity. A small red shift from C6H6 to DMF (with ΔEem=0.020 eV, or Δλmax=6 nm) is observed. The nearly equal emission energy observed in C6H6 and MeOH can again result in the explicit interactions between the solute and solvent molecules.
smiles,measurement,setting,value
CC1(C)c2ccccc2-[n+]2ccc(/C(C#N)=C/C=C/C3=C(O)c4ccccc4S3(=O)=O)cc21 [AI-SO-CN],Absorbance λmax,Butanol (BuOH),619 nm
same,Emission λmax,Butanol (BuOH),640 nm
same,Extinction coefficient ε,Butanol (BuOH),168000
same,Fluorescence quantum yield Φ,Butanol (BuOH),0.29
same,Absorbance λmax,Methanol (MeOH),608 nm
same,Emission λmax,Methanol (MeOH),624 nm
same,Extinction coefficient ε,Methanol (MeOH),163000
same,Fluorescence quantum yield Φ,Methanol (MeOH),0.08
same,Absorbance λmax,Water-Methanol (H2O—MeOH),601 nm
same,Emission λmax,Water-Methanol (H2O—MeOH),624 nm
same,Extinction coefficient ε,Water-Methanol (H2O—MeOH),128000
same,Fluorescence quantum yield Φ,Water-Methanol (H2O—MeOH),0.08
CCn1c(O)c(/C=C/C=C(\C#N)c2cc[n+]3c(c2)C(C)(C)c2ccccc2-3)c(=O)n(CC)c1=S [AI-TBA-CN],Absorbance λmax,Butanol (BuOH),621 nm
same,Emission λmax,Butanol (BuOH),641 nm
same,Extinction coefficient ε,Butanol (BuOH),188000
same,Fluorescence quantum yield Φ,Butanol (BuOH),0.33
same,Absorbance λmax,Methanol (MeOH),606 nm
same,Emission λmax,Methanol (MeOH),632 nm
same,Extinction coefficient ε,Methanol (MeOH),146000
same,Fluorescence quantum yield Φ,Methanol (MeOH),0.22
same,Absorbance λmax,Water-Methanol (H2O—MeOH),593 nm
same,Emission λmax,Water-Methanol (H2O—MeOH),625 nm
same,Extinction coefficient ε,Water-Methanol (H2O—MeOH),77000
same,Fluorescence quantum yield Φ,Water-Methanol (H2O—MeOH),0.17
CCn1c([O-])c(/C=C/C=C/c2cc[n+]3c(c2)C(C)(C)c2ccccc2-3)c(=O)n(CC)c1=S [AI-TBA],Absorbance λmax,Butanol (BuOH),619 nm
same,Extinction coefficient ε,Butanol (BuOH),53000
same,Absorption energy Eabs Exp,C6H6,1.816 eV
same,Absorption energy Eabs Exp,MeOH,2.153 eV
same,Absorbance λmax,Methanol (MeOH),576 nm
same,Extinction coefficient ε,Methanol (MeOH),38000
same,Observed absorption (ε),"Table 10, BuOH",(53000)
same,Observed absorption λmax,"Table 10, BuOH",619 nm
same,Observed absorption (ε),"Table 10, C6H6",(135000)
same,Observed absorption λmax,"Table 10, C6H6",683 nm
same,Observed absorption (ε),"Table 10, CH2Cl2",(104000)
same,Observed absorption λmax,"Table 10, CH2Cl2",655 nm
same,Observed absorption (ε),"Table 10, CH3CN",(54000)
same,Observed absorption λmax,"Table 10, CH3CN",615 nm
same,Observed absorption (ε),"Table 10, DMF",(52000)
same,Observed absorption λmax,"Table 10, DMF",616 nm
same,Observed absorption (ε),"Table 10, DMSO",(56000)
same,Observed absorption λmax,"Table 10, DMSO",607 nm
same,Observed absorption (ε),"Table 10, EtOH",(46000)
same,Observed absorption λmax,"Table 10, EtOH",603 nm
same,Observed absorption (ε),"Table 10, MeOH",(38000)
same,Observed absorption λmax,"Table 10, MeOH",576 nm
same,Observed absorption (ε),"Table 10, OcOH",(97000)
same,Observed absorption λmax,"Table 10, OcOH",633 nm
same,Observed absorption (ε),"Table 10, i-PrOH",(50000)
same,Observed absorption λmax,"Table 10, i-PrOH",618 nm
same,Absorption Exp wavelength,"Table 12, C6H6",683 nm
same,Absorption Exp wavelength,"Table 12, MeOH",576 nm
C[n+]1ccc(/C=C/C2=C([O-])c3ccccc3S2(=O)=O)cc1 [P-SO(2)],Observed absorption (ε),"Table 10, BuOH",(67000)
same,Observed absorption λmax,"Table 10, BuOH",519 nm
same,Observed absorption (ε),"Table 10, C6H6",(169000)
same,Observed absorption λmax,"Table 10, C6H6",538 nm
same,Observed absorption (ε),"Table 10, CH2Cl2",(128000)
same,Observed absorption λmax,"Table 10, CH2Cl2",529 nm
same,Observed absorption (ε),"Table 10, CH3CN",(89000)
same,Observed absorption λmax,"Table 10, CH3CN",546 nm
same,Observed absorption (ε),"Table 10, DMF",(92000)
same,Observed absorption λmax,"Table 10, DMF",522 nm
same,Observed absorption (ε),"Table 10, DMSO",(75000)
same,Observed absorption λmax,"Table 10, DMSO",520 nm
same,Observed absorption (ε),"Table 10, EtOH",(65000)
same,Observed absorption λmax,"Table 10, EtOH",514 nm
same,Observed absorption (ε),"Table 10, MeOH",(57000)
same,Observed absorption λmax,"Table 10, MeOH",505 nm
same,Observed absorption (ε),"Table 10, OcOH",(72000)
same,Observed absorption λmax,"Table 10, OcOH",524 nm
same,Observed absorption (ε),"Table 10, i-PrOH",(72000)
same,Observed absorption λmax,"Table 10, i-PrOH",518 nm
same,Observed emission (Φ),"Table 15, BuOH",0.015
same,Observed emission λmax,"Table 15, BuOH",535 nm
same,Observed emission (Φ),"Table 15, C6H6",0.004
same,Observed emission λmax,"Table 15, C6H6",546 nm
same,Observed emission (Φ),"Table 15, CH2Cl2",0.01
same,Observed emission λmax,"Table 15, CH2Cl2",541 nm
same,Observed emission (Φ),"Table 15, CH3CN",0.011
same,Observed emission λmax,"Table 15, CH3CN",531 nm
same,Observed emission (Φ),"Table 15, DMF",0.025
same,Observed emission λmax,"Table 15, DMF",534 nm
same,Observed emission (Φ),"Table 15, DMSO",0.024
same,Observed emission λmax,"Table 15, DMSO",535 nm
same,Observed emission (Φ),"Table 15, EtOH",0.008
same,Observed emission λmax,"Table 15, EtOH",533 nm
same,Observed emission (Φ),"Table 15, MeOH",0.005
same,Observed emission λmax,"Table 15, MeOH",529 nm
same,Observed emission (Φ),"Table 15, OcOH",0.024
same,Observed emission λmax,"Table 15, OcOH",536 nm
same,Observed emission (Φ),"Table 15, i-PrOH",0.014
same,Observed emission λmax,"Table 15, i-PrOH",532 nm
